What was measured:
[1] = test system: inflammatory mediators prostaglandin E2, LTB4 and TxB2; assay: Carrageenan sponge implantation model, mediator production in exudate; type: in vivo, rat
From the text: (§1) The carrageenan sponge implantation model is primarily used to measure the effect of antiinflammatory agents on cell infiltration. An acute inflammatory response is stimulated by the implantation of a small sponge beneath the skin of rats. The sponge normally contains an inflammatory stimulus such as carrageenan and produces a response which is characterized by infiltration of cells and accumulation of fluid. The number of cells in the exudate can be conveniently measured in the exudate fluid.
(§2) The compound of Example I was evaluated for its local effect on cell migration and mediator production in this model. For comparison, indomethacin and BW755C were also evaluated after local application. Polyester sponges were soaked in solutions of 0.5% carrageenan (in normal saline) which also contained 1% or 5% wt/vol of the test compound. The impregnated sponge was inserted through a small incision on the dorsal surface of a lightly anesthetized rat into a subcutaneous pocket formed by blunt dissection. The incision was then closed. The control treatment consisted of a sponge soaked in 0.5% carrageenan in normal saline. Animals were sacrificed 6 hours after sponge implantation. Sponges are dissected out an placed in heparinized saline. The number of infiltrating cells were determined using a coulter counter. The inflammatory mediators prostaglandin E2, LTB4 and TxB2 in the exudate were determined by radioimmunoassay.

[2] = test system: cell infiltration (leukocytes); assay: Carrageenan sponge implantation model, cell infiltration; type: in vivo, rat; details: for Leukocyte No.: 6 h
From the text: as §1, §2

[3] = biological target: T1, 5-lipoxygenase (Human Leukocyte/PMNL 5-LPO) (Homo sapiens, UniProt P09917); assay: Inhibition of 5-lipoxygenase (5-HETE formation) in human neutrophil/platelet system; type: cell-based; details: for IC50: FIG. 1 table, 95% confidence interval, read-out: IC50 Human PMNL 5-LPO
T1 construct: Human neutrophils and platelets were obtained from the blood of normal volunteers; endogenous in cells; host or cells: human blood leukocytes (neutrophils) of normal volunteers, with 0.1 to 0.5 platelets per leukocyte
T1 sequence (P09917 1-674): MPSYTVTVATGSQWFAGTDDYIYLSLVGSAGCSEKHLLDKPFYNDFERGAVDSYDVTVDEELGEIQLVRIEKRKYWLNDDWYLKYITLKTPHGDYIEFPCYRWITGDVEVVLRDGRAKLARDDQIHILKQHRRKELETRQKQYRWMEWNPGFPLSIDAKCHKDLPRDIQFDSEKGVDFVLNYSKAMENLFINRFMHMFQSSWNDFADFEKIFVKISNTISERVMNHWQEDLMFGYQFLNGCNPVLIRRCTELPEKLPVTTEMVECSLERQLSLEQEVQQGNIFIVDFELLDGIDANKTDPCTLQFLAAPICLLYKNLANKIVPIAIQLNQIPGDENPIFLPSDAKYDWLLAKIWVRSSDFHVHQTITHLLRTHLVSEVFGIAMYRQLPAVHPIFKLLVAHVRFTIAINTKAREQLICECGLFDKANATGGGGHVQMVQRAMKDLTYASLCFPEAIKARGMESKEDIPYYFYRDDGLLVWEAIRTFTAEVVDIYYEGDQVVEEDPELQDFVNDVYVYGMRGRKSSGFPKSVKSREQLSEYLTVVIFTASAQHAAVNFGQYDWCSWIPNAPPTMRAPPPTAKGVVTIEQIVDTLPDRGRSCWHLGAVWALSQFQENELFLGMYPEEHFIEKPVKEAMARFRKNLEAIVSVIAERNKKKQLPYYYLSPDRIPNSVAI
From the text: This test is a measure of the inhibition of the synthesis of lipoxygenase products generated by human neutrophils and platelets. The protocol is similar to that described in the article "Comparative Effects of Indomethacin, Acetylenic Acids, 15-HETE, NDGA and BW755C on the Metabolism of Arachidonic Acid in Human Leukocytes and Platelets", H. Solari, P. Braquet and P. Borgeat, Prost. Leuk. Med. 13, pp. 53-60, 1984.
Human neutrophils and platelets were obtained from the blood of normal volunteers. The blood was collected into tubes containing EDTA as an anticoagulant. The blood was centrifuged at 250×g for 15 minutes and the platelet rich plasma was removed. The cell fraction was mixed with an equal volume of 0.9% saline containing 10 mM dextrose and resuspended in Dulbecco's phosphate buffered saline (PBS) without Mg^++ and Ca^++ and was counted. The cell suspension was adjusted to give a leukocyte count of 2-3×10^7 cells/ml.
Test compounds were dissolved in ethanol and added to polypropylene tubes. To control tubes (drug-free) only ethanol was added. The ethanol was evaporated to dryness under a stream of argon and then 0.1 ml of the cell suspension (2-3×10^6 cells) was added. This mixture was pre-incubated for 5 minutes at 37° and then the reaction was initiated by addition of ^3 H-arachidonic acid, calcium ionophore (A23187), and calcium ion. The final concentration of each component was: arachidonic acid, 10 uM; A23187, […]; calcium ion, […]. After 5 minutes the incubations were stopped by addition of an equal volume of methanol. The tubes were spun at 11,000 g for 2 minutes to pellet the precipitated protein. The supernatant was analyzed by HPLC for 5-HETE. The formation of this product is indicative of 5-lipoxygenase activity. Test drugs were evaluated for their ability to inhibit 5-HETE formation. Percent inhibition of varying concentrations of test drugs was determined in duplicate by comparing the peak quantitation in the presence and absence (control) of drug. […] The IC50 values were calculated from log-dose response curves of pooled data from at least two experiments by linear regression analysis.
The activity was tested by the same method as in the previous example.
The enzyme inhibitory activity of these compounds was tested by the same method.

[4] = biological target: T2, Human Platelet CO (Homo sapiens, UniProt P23219); assay: Inhibition of CO, human platelet; type: cell-based; details: 95% confidence interval given for some
T2 construct: Human neutrophils and platelets were obtained from the blood of normal volunteers; endogenous in cells; host or cells: human platelets from blood of normal volunteers
T2 sequence (P23219 24-599): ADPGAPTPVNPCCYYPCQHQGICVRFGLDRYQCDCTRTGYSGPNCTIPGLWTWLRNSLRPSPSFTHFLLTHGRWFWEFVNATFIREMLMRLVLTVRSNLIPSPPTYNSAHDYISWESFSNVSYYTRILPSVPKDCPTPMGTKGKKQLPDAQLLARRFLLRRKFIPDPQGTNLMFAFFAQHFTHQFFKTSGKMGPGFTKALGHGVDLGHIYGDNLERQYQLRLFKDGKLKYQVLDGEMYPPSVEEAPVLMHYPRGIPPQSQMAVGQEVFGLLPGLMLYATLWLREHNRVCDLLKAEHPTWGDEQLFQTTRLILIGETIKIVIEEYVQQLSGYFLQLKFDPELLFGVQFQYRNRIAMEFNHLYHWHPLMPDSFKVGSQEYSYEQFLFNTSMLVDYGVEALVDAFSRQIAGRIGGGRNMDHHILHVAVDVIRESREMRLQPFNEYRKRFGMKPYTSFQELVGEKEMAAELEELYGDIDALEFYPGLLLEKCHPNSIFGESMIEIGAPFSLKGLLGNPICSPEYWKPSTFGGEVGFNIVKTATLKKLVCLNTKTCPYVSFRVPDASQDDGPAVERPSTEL

[5] = biological target: T3, Human Platelet 12-LPO (Homo sapiens, UniProt P18054); assay: Inhibition of 12-LPO, human platelet; type: cell-based
T3 construct: Human neutrophils and platelets were obtained from the blood of normal volunteers; endogenous in cells; host or cells: human platelets from blood of normal volunteers
T3 sequence (P18054 1-663): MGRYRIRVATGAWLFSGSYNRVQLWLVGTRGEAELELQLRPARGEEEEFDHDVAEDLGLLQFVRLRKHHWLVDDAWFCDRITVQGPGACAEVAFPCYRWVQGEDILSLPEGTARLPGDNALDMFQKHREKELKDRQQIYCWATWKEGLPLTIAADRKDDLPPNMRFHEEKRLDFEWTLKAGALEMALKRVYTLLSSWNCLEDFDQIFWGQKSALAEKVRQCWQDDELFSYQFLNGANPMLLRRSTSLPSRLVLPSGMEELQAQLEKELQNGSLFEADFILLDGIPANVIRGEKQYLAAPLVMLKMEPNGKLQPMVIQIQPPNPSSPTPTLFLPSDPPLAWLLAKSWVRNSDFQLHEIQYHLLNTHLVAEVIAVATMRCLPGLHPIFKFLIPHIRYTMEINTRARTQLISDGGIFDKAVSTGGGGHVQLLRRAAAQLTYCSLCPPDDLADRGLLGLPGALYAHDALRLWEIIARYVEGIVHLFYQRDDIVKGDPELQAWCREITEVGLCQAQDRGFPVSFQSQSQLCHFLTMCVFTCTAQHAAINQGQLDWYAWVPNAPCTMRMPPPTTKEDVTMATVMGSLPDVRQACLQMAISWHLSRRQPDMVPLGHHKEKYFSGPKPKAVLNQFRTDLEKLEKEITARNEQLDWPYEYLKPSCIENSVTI

[6] = Experiment 2, 5% compound, control 19.2 ± 1.9
[7] = Experiment 2, 5% compound, control 137.6 ± 13.1
[8] = Experiment 2, 0.5% carrageenan plus 5% compound in sponge, control 33.0 ± 3.8
[9] = Experiment 1, 1% compound, control 3.6 ± 1.3
[10] = Experiment 1, 1% compound, control 10.8 ± 3.7
[11] = Experiment 1, 1% compound, control 11.8 ± 4.1

% Inhibition at 100 μm ([3]; 4-alkoxyphenyl compounds) [%]	IC50 [3] [µM]	IC50 [4] [µM]	inhibition at 100 µM ([5]; @ 100 μM, read-out: % I Human Platelet 12-LPO) [%]	IC50 ([5]; 95% confidence interval) [µM]	SMILES	TXB2 [1, 6] [ng/ml Exudate]	PGE2 [1, 7] [ng/ml Exudate]	Leukocyte No. [2, 8]	reduction of cell infiltration ([2]; dosed at 5%) [%]	TXB2 [1, 9] [ng/ml Exudate]	PGE2 [1, 10] [ng/ml Exudate]	LTB4 [1, 11] [ng/ml Exudate]	LTB4 ([1]; Experiment 2, 5% compound, control 5.5 ± 0.9) [ng/ml Exudate]	Leukocyte No. ([2]; Experiment 1, 0.5% carrageenan plus 1% compound in sponge, control 10.8 ± 1.5)	reduction of cell infiltration ([2]; dosed at 1%)	activity in carrageenan sponge implantation model ([2]; in words)
–	–	–	–	–	NC1=NN(c2cccc(C(F)(F)F)c2)CC1 [BW755C, reference compound]	0.8 ± 0.3	3.0 ± 1.0	6.9 ± 1.7 cells/ml (× 10^-6)	79	–	–	–	–	–	–	–
98.3	5.7	15	33	–	O=C(CCCCCCCCc1ccccc1)NO [Compound 1, 9-Phenylnonanohydroxamic Acid]	4.1 ± 0.9	21.3 ± 4.1	< 1 cells/ml (× 10^-6)	96.1	0.3 ± 0.1	5.7 ± 0.9	2.1 ± 1.0	2.4 ± 0.9	6.9 ± .7 cells/ml (× 10^-6)	36.1%	found to have activity in this in vivo animal system
–	–	–	–	–	COc1ccc2c(c1)c(CC(=O)O)c(C)n2C(=O)c1ccc(Cl)cc1 [Indomethacin, reference compound]	–	–	–	–	< 0.5	1.9 ± 0.3	1.6 ± 0.5	–	–	did not significantly reduce cell infiltration	–
–	0.16	4.2	–	4.5	CC(C)N(O)C(=O)CCCCCCCc1ccccc1 [BMY30214]	–	–	–	–	–	–	–	–	–	–	–

Reference: US4861798A, “Lipoxygenase inhibitory compounds” (Bristol-Myers Company, priority 1987, dated 1989)
